Patent US20040241754A1, “Modulating neuronal plasticity” (The Salk Institute for Biological Studies, priority 2003, published 2004)
Entries after “also recorded” stand apart in the source; their conditions may differ. Ends that are not written are not given here.

Key:
[1] = test system: mossy fiber synapses of hippocampal CA3 pyramidal neurons; assay: Mossy fiber LTP, whole-cell patch clamp in hippocampal slices; assay type: cell-based, mice
Protocol: The role of the GluR2 subunit in LTP at mossy fiber terminals was evaluated in whole cell patch clamp experiments using hippocampal CA3 pyramidal neurons. Briefly, transverse hippocampal slices (350 μm) were made from P12-18 mice (strain 129SvEv) as previously described (Contractor et al., Neuron 29, 209-16. (2001)). Slices were transferred to a recording chamber, and whole-cell patch clamp recordings made from visually identified pyramidal cells in the CA3 region of the hippocampus. The recording electrode (i.e., patch electrode) is filled with an “internal” solution described below. A seal between the glass of the electrode and the membrane of the cell is made. The seal is then “broken through” by pushing the electrode through the membrane to gain low resistance access to the cell interior and enable voltage clamping of the cell membrane. This also allows dialysis of the cell with test reagents such as peptides and antibodies. A stimulating electrode is attached to a current source and allows current to stimulate action potentials while a reference electrode is placed in the recording bath. The composition of the internal solution was: 95 mM CsF, 25 mM CsCl, 10 mM Cs-HEPES, 10 mM Cs-EGTA, 2 mM NaCl, 2 mM Mg-ATP, 10 mM QX-314, 5 mM TEA-Cl, 5 mM 4-AP, pH adjusted to 7.3 with CsOH.
Peptides were added directly to the internal solution on the day of the experiment from frozen stocks in protease inhibitors made up in phosphate buffered saline (PBS). To avoid leakage of peptides or antibodies into the extracellular space, pipette tips were filled with normal internal solution and then the pipette was backfilled with peptide/antibody containing internal fluid. The final concentration of peptides was 50 μM in all experiments. The final concentration of protease inhibitors were: bestatin 2 μg/ml, leupeptin 25 ng/ml, pepstatin 35 ng/ml, aprotinin 100 ng/ml.
In control experiments where peptides were not included, internal solutions were made up in exactly the same way with protease inhibitors in PBS but lacking any added peptide. Antibodies were made up in PBS stock and added directly to the internal solution at a final concentration of 20 μg/ml. The pH and osmolarity of all internal solutions were checked before use. Series resistances (Rs) were generally <10M and were continuously monitored throughout the duration of the experiment. […] Experiments using mutant mice were performed with heterozygous breedings blind to the genotype of the animal.
Mossy fiber EPSCs were evoked with a monopolar glass electrode positioned in the stratum lucidum. EPSCs were evaluated using a 40 ms interval between recordings. All recordings were made in the continuous presence of bicuculline (10 μM), picrotoxin (50 μM) and the NMDA receptor antagonist D-AP5 [D(-)-2-Amino-5-phosphonopentanoic acid; 50 μM]. The group II mGluR agonist, LCCG-1 (10 μM), which selectively depresses mossy fiber transmission, was applied at the end of each experiment. LTP was induced by tetanic stimulation comprising three 1 s stimulations (100 Hz) with a 10 s interval. Data are presented as mean±SEM. Parameters were compared using the Student's unpaired t-test where not specified, and the K-S test, p<0.05 was considered significant.
Cumulative probability is determined by ranking the EPSC data set from the highest to the lowest value from 20 to 30 minutes post tetanization. Each point is graphed with its corresponding percentile. […] The lowest LTP value was about 40% signified by the lowest point on the 1 st graph (open circles) and the largest LTP was about 160%.

GRIP PDZ4-6 = molecular target: T1, GRIP PDZ4-6 (Rattus norvegicus, UniProt P97879); assay: Competitive binding of 35S-EphB2 to His-GRIP-PDZ4-6; conditions: 35S-EphB2 50 nM; fitted to the Hill equation; read-out: Ki, displacement of 35S-EphB2 binding to His-GRIP-PDZ 4-6
T1 construct: corresponding to GRIP1 (amino acid 448-792); made in house; host or cells: E. coli BL21
T1 sequence (P97879 448-792): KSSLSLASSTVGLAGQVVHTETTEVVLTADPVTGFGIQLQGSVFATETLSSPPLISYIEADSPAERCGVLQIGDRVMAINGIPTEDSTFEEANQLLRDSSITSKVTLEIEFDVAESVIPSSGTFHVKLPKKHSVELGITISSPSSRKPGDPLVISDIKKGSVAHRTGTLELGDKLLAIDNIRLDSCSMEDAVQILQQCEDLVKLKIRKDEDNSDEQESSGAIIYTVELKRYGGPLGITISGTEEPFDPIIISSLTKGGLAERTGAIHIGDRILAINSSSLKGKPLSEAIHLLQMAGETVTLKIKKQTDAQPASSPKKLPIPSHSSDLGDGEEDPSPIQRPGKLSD
Protocol: A competitive binding assay was prepared to determine if the LTP inhibitory effects of the GluR2ct peptide were mediated through disruption of binding between Eph receptors and PDZ domain 6 of GRIP (Torres et al., Neuron 21, 1453-63. (1998)) as opposed to disruption of binding between the GluR2 subunit and the GluR2-binding PDZ 4 and 5 domains of GRIP (Dong et al., Nature 386, 279-84. (1997)). For this purpose, a binding assay was established between GRIP PDZ domain fragments (His-GRIP-PDZ4-6) and an EphB2 carboxy terminal fusion protein labeled with ^35S-methionine (^35S-EphB2).
(§1) Briefly, the carboxy terminal region of EphB2 corresponding to mouse EphB2 receptor (amino acid 930-993) was generated by PCR from mouse brain library and subcloned into pGEX2TK (Pharmacia). The GRIP(PDZ4-6) construct, corresponding to GRIP1 (amino acid 448-792) was obtained by PCR from an adult rat hippocampal library and subcloned into pRSET vector. E coli (strain BL21) were transformed with His-GRIP(PDZ4-6) and GST-EphB2 and protein production induced with IPTG. GST-EphB2 protein was purified on glutathionine beads and ^35S-EphB2 cleaved from GST with thrombin (1 U/μg). GRIP(PDZ4-6) protein was purified on Ni-NTA agarose, and eluted with imadazole. ^35S-EphB2 (50 nM) was incubated with (15 μg) of His-GRIP(PDZ4-6) protein in PBS buffer with protease inhibitors for 2 hrs at 22° C. in the absence or presence of peptides. ^35S-EphB2 binding to His-GRIP(PDZ4-6) was determined after a 45 min incubation with Ni-NTA agarose and vacuum filtration onto Whatman GFB filter circles (pretreated with 3% BSA). Filters were washed with ice-cold PBS buffer, allowed to equilibrate overnight in ECOLUME scintillation cocktail (ICN pharmaceuticals, Irvine Calif.), and specific counts measured in a scintillation counter. Non-specific binding was defined as the residual binding measured in the absence of His-GRIP(PDZ4-6).

GRIP PDZ 6 domain = molecular target: T2, GRIP PDZ 6 domain (Rattus norvegicus, UniProt P97879); assay: Competitive binding of 35S-EphB2 to His-GRIP-PDZ6
T2 construct: a GRIP fragment containing only the PDZ 6 domain; made in house; host or cells: E. coli BL21 (inferred from the PDZ4-6 construct)
T2 sequence (P97879 672-754 limits assumed): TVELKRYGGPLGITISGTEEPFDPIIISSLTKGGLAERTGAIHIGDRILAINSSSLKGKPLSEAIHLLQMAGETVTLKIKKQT
Excerpt: as §1, with “His-GRIP(PDZ4-6). […]” for “His-GRIP(PDZ4-6).”

EphA3 = conditions: read-out: Kd for binding to EphA3; cited from earlier work
EphB1 = conditions: read-out: Kd for binding to EphB1; cited from earlier work
His-GRIP-PDZ6 = molecular target: T3, His-GRIP-PDZ6 (UniProt P97879 672-754); assay: displacement of ^35S-EphB2 from His-GRIP-PDZ6
T3 construct: domain: PDZ 6; also called GRIP fragment containing only the PDZ 6 domain; PDZ domain 6 of GRIP; not shown: His tag
T3 sequence (looked up): T2 sequence (P97879 672-754 limits assumed)

His-GRIP(PDZ4-6) = molecular target: T4, His-GRIP(PDZ4-6) (rat, UniProt P97879 448-792); assay: displacement of ^35S-EphB2 (50 nM) from His-GRIP-PDZ4-6, Hill fit
T4 construct: range 448-792; not shown: His tag and vector residues from pRSET
T4 sequence (looked up): T1 sequence (P97879 448-792)

EphA8 = molecular target: T5, EphA8 (Mus musculus, UniProt O09127); conditions: read-out: Kd for binding to EphA8; cited from earlier work
T5 sequence (O09127 27-1004): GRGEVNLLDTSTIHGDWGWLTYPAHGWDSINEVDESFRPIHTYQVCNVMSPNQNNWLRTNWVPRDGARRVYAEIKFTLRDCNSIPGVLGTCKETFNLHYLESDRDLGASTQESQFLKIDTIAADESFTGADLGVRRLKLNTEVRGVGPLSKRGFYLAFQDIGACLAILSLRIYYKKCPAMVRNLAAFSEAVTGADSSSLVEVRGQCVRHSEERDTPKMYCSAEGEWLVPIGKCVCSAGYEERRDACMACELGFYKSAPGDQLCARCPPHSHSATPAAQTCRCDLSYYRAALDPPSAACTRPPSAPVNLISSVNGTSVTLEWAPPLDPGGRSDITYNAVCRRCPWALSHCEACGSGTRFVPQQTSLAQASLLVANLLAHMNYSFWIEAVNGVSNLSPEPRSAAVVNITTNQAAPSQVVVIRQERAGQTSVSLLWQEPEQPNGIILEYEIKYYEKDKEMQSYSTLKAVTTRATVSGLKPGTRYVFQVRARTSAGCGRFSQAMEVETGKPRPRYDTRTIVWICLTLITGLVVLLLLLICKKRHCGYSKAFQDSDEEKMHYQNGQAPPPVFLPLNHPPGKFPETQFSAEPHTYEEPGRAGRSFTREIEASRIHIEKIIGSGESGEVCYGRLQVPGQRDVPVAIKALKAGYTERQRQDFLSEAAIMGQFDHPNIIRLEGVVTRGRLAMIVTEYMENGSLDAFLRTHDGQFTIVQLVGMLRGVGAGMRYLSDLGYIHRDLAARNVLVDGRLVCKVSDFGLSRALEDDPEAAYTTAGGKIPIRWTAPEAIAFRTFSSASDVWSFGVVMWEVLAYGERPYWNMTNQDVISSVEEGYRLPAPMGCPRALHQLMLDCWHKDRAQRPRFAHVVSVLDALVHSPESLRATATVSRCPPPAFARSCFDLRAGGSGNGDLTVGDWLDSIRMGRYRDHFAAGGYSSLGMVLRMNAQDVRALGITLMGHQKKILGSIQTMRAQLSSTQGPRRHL

EphA4 = EphA4 (Homo sapiens, UniProt P54764); conditions: read-out: Kd for binding to EphA4; cited from earlier work
Chain of EphA4 (P54764 20-986, species assumed): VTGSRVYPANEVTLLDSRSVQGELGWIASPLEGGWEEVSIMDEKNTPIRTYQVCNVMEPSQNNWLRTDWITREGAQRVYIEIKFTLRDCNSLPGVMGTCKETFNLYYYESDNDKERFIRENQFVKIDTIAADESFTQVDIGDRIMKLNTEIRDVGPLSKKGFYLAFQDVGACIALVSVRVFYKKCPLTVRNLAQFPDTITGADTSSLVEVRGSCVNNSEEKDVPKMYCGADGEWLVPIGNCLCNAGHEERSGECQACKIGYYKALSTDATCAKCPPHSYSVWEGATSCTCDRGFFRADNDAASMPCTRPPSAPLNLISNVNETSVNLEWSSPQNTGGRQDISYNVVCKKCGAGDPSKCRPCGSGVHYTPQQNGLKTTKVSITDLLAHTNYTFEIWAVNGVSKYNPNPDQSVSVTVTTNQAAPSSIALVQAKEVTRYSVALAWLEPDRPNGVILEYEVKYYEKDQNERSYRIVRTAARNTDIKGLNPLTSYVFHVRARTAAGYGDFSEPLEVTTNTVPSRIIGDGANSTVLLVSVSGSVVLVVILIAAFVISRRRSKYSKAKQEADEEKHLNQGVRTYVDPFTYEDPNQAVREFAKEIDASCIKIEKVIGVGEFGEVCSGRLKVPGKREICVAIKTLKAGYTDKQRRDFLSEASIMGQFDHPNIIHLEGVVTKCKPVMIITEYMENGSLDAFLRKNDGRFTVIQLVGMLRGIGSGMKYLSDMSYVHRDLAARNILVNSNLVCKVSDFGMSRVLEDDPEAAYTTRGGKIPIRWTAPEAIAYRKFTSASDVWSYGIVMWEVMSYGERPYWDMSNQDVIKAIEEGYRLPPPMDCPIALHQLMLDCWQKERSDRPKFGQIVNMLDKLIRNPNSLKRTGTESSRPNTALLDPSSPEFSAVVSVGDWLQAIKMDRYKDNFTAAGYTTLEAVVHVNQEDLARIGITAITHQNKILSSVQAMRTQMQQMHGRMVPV

[2] = peptide 50 μM in patch electrode, 40 ms interval

Molecule: NVYGIESVKI [GluR2ct, Asn-Val-Tyr-Gly-Ile-Glu-Ser-Val-Lys-Ile]
- LTP (potentiation of the EPSC after tetanic stimulation) ([1]; peptide 50 μM in patch electrode (postsynaptic), 25 to 30 minutes after tetanic stimulation): 140±11%
- LTP PPR (paired pulse ratio after LTP induction) [1, 2]: 2.5±0.12
- control PPR (paired pulse ratio before LTP induction) [1, 2]: 2.8±0.14
- PTP (post-tetanic potentiation) ([1]; peptide 50 μM in patch electrode, immediately following tetanic stimulation): 510±67%
- effect on basal synaptic transmission / basal EPSC amplitudes ([1]; peptide in patch electrode): small effect on basal synaptic transmission in some neurons
- paired pulse ratio after LTP induction versus pretetanic ([1]; peptide in patch electrode): no significant difference after induction of LTP
- effect on tetanus induced LTP ([1]; peptide in patch electrode (postsynaptic)): little potentiation was observed; also recorded: significantly less potentiation; also recorded: inhibit mossy fiber hippocampal CA3 neuronal LTP
- Ki (GRIP PDZ4-6): 106 nM
- displacement of EphB2 from / binding to GRIP PDZ domain 6 (GRIP PDZ 6 domain): binds directly to PDZ domain 6 of GRIP; also recorded: can displace EphB2
- Ki (GRIP PDZ 6 domain; read-out: Ki, displacement of 35S-EphB2 binding to His-GRIP-PDZ6): 155 nM

B1: ephrin-B1: a 45 kDa, 346 amino acid glycosylated polypeptide; ephrin ligand (protein, UniProt P98172 1-346, looked up)
chain: MARPGQRWLGKWLVAMVVWALCRLATPLAKNLEPVSWSSLNPKFLSGKGLVIYPKIGDKLDIICPRAEAGRPYEYYKLYLVRPEQAAACSTVLDPNVLVTCNRPEQEIRFTIKFQEFSPNYMGLEFKKHHDYYITSTSNGSLEGLENREGGVCRTRTMKIIMKVGQDPNAVTPEQLTTSRPSKEADNTVKMATQAPGSRGSLGDSDGKHETVNQEEKSGPGASGGSSGDPDGFFNSKVALFAAVGAGCVIFLLIIIFLTVLLLKLRKRHRKHTQQRAAALSLSTLASPKGGSGTAGTEPSDIIIPLRTTENNYCPHYEKVSGDYGHPVYIVQEMPPQSPANIYYKV
modifications: full-length
notes: a 45 kDa, 346 amino acid glycosylated polypeptide; ephrin ligand
- Kd (EphA3): 350 nM
- Kd (EphB1): 0.925 nM

Molecule: NVYGIESVKI (also called GluR2ct; R2ct) [GluR2 carboxy terminal peptide]
- Ki (His-GRIP-PDZ6): 155 nM
- Ki (His-GRIP(PDZ4-6)): 106 nM

B2: ephrin-A2: a 213 amino acid protein; ephrin ligand (protein, UniProt O43921 1-213, looked up)
chain: MAPAQRPLLPLLLLLLPLPPPPFARAEDAARANSDRYAVYWNRSNPRFHAGAGDDGGGYTVEVSINDYLDIYCPHYGAPLPPAERMEHYVLYMVNGEGHASCDHRQRGFKRWECNRPAAPGGPLKFSEKFQLFTPFSLGFEFRPGHEYYYISATPPNAVDRPCLRLKVYVRPTNETLYEAPEPIFTSNNSCSSPGGCRLFLSTIPVLWTLLGS
modifications: full-length
notes: a 213 amino acid protein; ephrin ligand
- Kd (EphA8): 1.3 nM
- Kd (EphA3): 1 nM
- Kd (EphA4): 10 nM

B3: ephrin-A4: a 201 amino acid polypeptide; ephrin ligand (protein, UniProt P52798 26-170, looked up)
Ephrin-A4: LRHVVYWNSSNPRLLRGDAVVELGLNDYLDIVCPHYEGPGPPEGPETFALYMVDWPGYESCQAEGPRAYKRWVCSLPFGHVQFSEKIQRFTPFSLGFEFLPGETYYYISVPTPESSGQCLRLQVSVCCKERKSESAHPVGSPGES
- Kd (EphA4): 5 nM
- Kd (EphB1): 20 nM
